Structures can show the parent of a compound that is named as a salt. Where two headings read alike, the source gives them in different places.
What was measured:
male Lewis rats = experiment: Monoiodoacetate (MIA) model, incapacitance testing; type: in vivo; details: rat, single dose
Method: For all studies male Lewis rats of approximately 8 weeks of age at the time of MIA injection are used to measure pain in the MIA model. The rats are housed in groups of 2 or 3 per cage and maintained in a constant temperature and on a 12 hour light/12 hour dark cycle. Animals have free access to food and water at all times except during data collection.
In the standard MIA model the right knees of each rat are injected with 0.3 mg MIA in 50 ul of saline and the left knees with 50 ul of saline. Pain is measured at varying times after MIA injection (not normally before 10 day post MIA injection) using incapacitance testing. This measures the difference in hind paw weight bearing between the MIA and saline injected knees, and each measurement is the average of 3 separate measurements each measured over 1 second.
For studies with CB2 agonists rats are randomized into dose groups (n=5 or 6) and then dosed once with the compound under investigation. Dosing is staggered by 15 minutes for each rat and at a predetermined time post-dose (usually 2 hours), pain measured using incapacitance testing. Studies are routinely run with 4 groups, vehicle (1% carboxy methyl cellulose in water plus 0.25% polysorbate 80) and 3 compound groups which can be either single compounds at a single dose or the same compound at 3 doses. Results are reported as the difference in weight bearing between saline and MIA injected knees and statistical comparisons are made between vehicle treated and compound treated animals to assess the effect of compounds on knee pain in the model.

[1] = Dose-ranging toxicity study in beagle dogs; type: in vivo, dog; details: both sexes, beagle, dog, 30 mg/kg single oral dose, plasma
Method: (§1) One male and one female beagle dog are used to evaluate the acute toxicity after a single oral gavage dose of CB2 agonist. The dogs are housed individually and maintained in a constant temperature and on a 12 hour light/12 hour dark cycle. CB2 agonist is prepared in vehicle (1% hydroxyethylcellulose, 0.25% polysorbate 80, and 0.05% Dow Corning® Antifoam 1510-US in purified water) and administered by oral gavage at a dose volume of 2 mL/kg. Dogs are observed for mortality and clinical observations (before dosing, 2 hours postdose, in the afternoon and daily thereafter). Food consumption is assessed by daily visual assessment of food remaining. Blood is collected before dosing and 48 hours after dosing to evaluate effects on haematology and clinical chemistry parameters. Blood is collected at 0.5, 1, 2, 4, 8, and 24 hours postdose to evaluate toxicokinetic plasma drug concentrations.

beagle dog = experiment: Dose-ranging toxicity study in beagle dogs; type: in vivo; details: single oral dose of 30 mg/kg
Method: as §1

[2] = test system: Male Harlan Sprague Dawley rats; experiment: Chemotherapy-induced pain assay (paclitaxel, von Frey); type: in vivo, rat; details: for Mean paw withdrawal latencies (mean ± SE): 1 hour post-dose, n of 12
Method: Male Harlan Sprague Dawley rats 150-200 grams are acclimated to the vivarium for 7 days. The animals are maintained in a constant temperature and on a 12 hour light/12 hour dark cycle, and housed in groups of 3-4 with water and food ad libitum. Twice daily dosing of compound at 10 mg/kg (oral), morphine at 5 mg/kg, and vehicle commences on Day 1 of the study, and continues through the duration of the study (Day 18). Paclitaxel at 1 mg/kg (intraperitoneal) is administered on Days 2, 4, 6, and 8, for a cumulative dose of 4 mg/kg in order to induce chemotherapy-induced peripheral neuropathy.
Rats are placed in individual plexiglass chambers with a wire mesh platform bottom to allow access to the hindpaw. After an acclimation period of 15 minutes to 1 hour, the mid-plantar hind paws are assessed within the sciatic nerve distribution. A series of 8 von Frey hairs with logarithmically incremental stiffness (0.41, 0.70, 1.20, 2.00, 3.63, 5.50, 8.50, and 15.10 g) are applied to the hind paws. The von Frey hairs are presented perpendicular to the plantar surface with sufficient force to cause slight bending. Stimuli are presented at intervals of several seconds. A positive response is noted if the paw is sharply withdrawn or if flinching immediately upon removal of the hair is observed. On study days, behavioral endpoints are evaluated 1 hour post-dose. Score patterns are evaluated using the Dixon up-down method, and translated to a response threshold (1980, Ann Rev Pharmacol Toxicol 20:441-462). The maximum applied force is 15.10 grams. The initial behavior assessment occurs on Day 10 of the study, and subsequent measures are made on Study Days 12, 15, and 18.
Results are expressed as mean values with standard errors of the mean (mean±SE) for an n of 12 per group. All statistical evaluations are conducted utilizing a one-way ANOVA followed by comparison to the control group by Dunnett's Method. Statistical significance is assumed when p<0.05. Statistical analyses are performed using JMP statistical analysis software (SAS Research Institute, version 6.0.2).

hCB1 = target: T1, hCB1 (Homo sapiens, UniProt P21554); experiment: CB1 in vitro functional assay (SPA based GTP-γ-35S binding, agonist mode); type: biochemical
T1 construct: expressed in transfected cells; host or cells: CHO cells (membranes)
T1 sequence (P21554 whole entry): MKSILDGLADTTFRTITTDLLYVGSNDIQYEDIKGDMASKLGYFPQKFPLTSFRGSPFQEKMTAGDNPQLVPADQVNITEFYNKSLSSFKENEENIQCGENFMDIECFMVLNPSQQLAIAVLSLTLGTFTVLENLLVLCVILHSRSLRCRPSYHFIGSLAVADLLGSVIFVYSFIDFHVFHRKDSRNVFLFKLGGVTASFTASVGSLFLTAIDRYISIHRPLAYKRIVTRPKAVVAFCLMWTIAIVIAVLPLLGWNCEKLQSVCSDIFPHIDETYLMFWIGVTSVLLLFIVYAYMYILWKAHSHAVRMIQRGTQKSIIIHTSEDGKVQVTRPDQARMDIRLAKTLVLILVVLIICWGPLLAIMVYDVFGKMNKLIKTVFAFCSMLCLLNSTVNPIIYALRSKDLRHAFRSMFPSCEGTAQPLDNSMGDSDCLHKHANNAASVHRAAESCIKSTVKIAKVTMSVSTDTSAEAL
Method: (§2) Exemplified compounds are tested in agonist mode using a SPA based GTP-γ-^35S binding assay. All assay components are prepared in assay buffer made up of 20 mM HEPES, 100 mM NaCl, 5 mM MgCl2, (pH 7.4 at room temperature). Semi-log compound dilutions are done in assay buffer containing BSA (final 0.125%). GTP-γ^35-S binding is measured in a 96 well format using a whole membrane capture technique for the CB1 assay and modifications of an antibody capture technique previously described (DeLapp et al. J Pharmacol Exp Ther 289:946-955, 1999) for the CB2 assay. All incubations are done at room temperature.
hCB1-CHO membranes, GDP (1 uM final), and saponin (10 ug/mL final) are added to assay buffer and homogenized. Diluted compounds, GTP-γ-^35S (500 nM final) and membranes are added to the assay plate and incubated for 30 minutes. Then 1 mg/well Wheatgerm Agglutinin SPA bead is added, and the plates are sealed, vortexed, and incubated for an additional hour. Plates are then centrifuged at 700×g for 10 minutes and counted for 1 minute per well using a scintillation counter.
To analyze data, first subtract background from all wells. Determine percent agonist efficacy by normalizing agonist/inverse agonist dose response data to a full agonist (methanandamide) response. Analyze the data using a 4-parameter logistic reduced fit with Activity Base and XLFit3.

hCB2 [3] = target: T2, hCB2 (Homo sapiens, UniProt P34972); experiment: CB2 in vitro functional assay (SPA based GTP-γ-35S binding, agonist mode); type: biochemical
T2 sequence (P34972 whole entry): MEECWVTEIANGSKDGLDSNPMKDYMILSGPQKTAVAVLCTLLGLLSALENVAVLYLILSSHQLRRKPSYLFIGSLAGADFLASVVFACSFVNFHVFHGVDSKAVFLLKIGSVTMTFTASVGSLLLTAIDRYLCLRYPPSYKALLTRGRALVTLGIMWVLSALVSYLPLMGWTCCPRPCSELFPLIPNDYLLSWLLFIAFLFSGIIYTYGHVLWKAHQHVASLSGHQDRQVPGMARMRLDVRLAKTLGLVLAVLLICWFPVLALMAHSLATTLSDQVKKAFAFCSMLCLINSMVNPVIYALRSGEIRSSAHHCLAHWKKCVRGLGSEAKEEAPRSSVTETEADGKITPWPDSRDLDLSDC
Method: as §2
hCB2-Sf9 membranes and GDP (1 uM final) are added to assay buffer and homogenized. Diluted compounds and membranes are added to the assay plate and pre-incubated for 15 minutes. This is followed by addition of GTP-γ-^35S ([…] final) and another 35 minute incubation. Next a mixture containing Nonidet P40 detergent (0.2% final), anti-Gi antibody (final dilution of 1:362), and 1.25 mg anti-rabbit antibody scintillation proximity assay beads are added. The plates are then sealed, vortexed, and incubated for an additional 2 hours before centrifuging and counting as for CB1.
To analyze data, first subtract background from all wells. Determine percent agonist efficacy by normalizing agonist/inverse agonist dose response data to a full agonist (methanandamide) response. […]

hCB2 [4] = target: T2, hCB2; experiment: Displacement of 3H-CP55940 from human CB2 receptors; type: binding; design: expressed in transfected cells; details: 3H-CP55940 displacement
Method: (§3) The methods of Felder et al. (Mol. Pharmaocol. 48:443-450, 1995) were utilized with minor modifications. Specifically, membrane homogenates from cells stably or transiently expressing the human or rat CB2 receptor were washed by centrifugation and diluted into a 50 mM Tris HCl (pH 7.4), 5 mM MgCl2, 2.5 mM EDTA, and 0.1% BSA buffer. Specific binding of 3H-CP55940 was defined with 1 μM CP55940. The ability of compounds to displace specific 3H-CP55940 binding was tested over a range of concentrations in the Tris, MgCl2, EDTA, BSA buffer in the presence of 1% dimethyl sulfoxide by incubating at room temperature for 90 minutes in a volume of 300 μl. Unifilter 96-well microplates pretreated with 0.5% polyvinylpyrrolidone, 0.1% polysorbate 20 in water were washed three times with cold Tris buffer. The reaction mixture was then transferred to the filter plate immediately before terminating the incubation by rapid filtration and three 200 μl washes with cold Tris buffer. After the filter plates dried, microscint 20 was added to each well, the plate sealed and counted for determination of disintegrations per minute. The displacement curves were graphed and the resulting Ki values determined utilizing Graphpad Prism.

rat CB2 receptor = target: T3, rat CB2 receptor (Rattus norvegicus, UniProt Q9QZN9); experiment: Displacement of 3H-CP55940 from rat CB2 receptors; type: binding
T3 construct: expressed in transfected cells
T3 sequence (Q9QZN9 1-360): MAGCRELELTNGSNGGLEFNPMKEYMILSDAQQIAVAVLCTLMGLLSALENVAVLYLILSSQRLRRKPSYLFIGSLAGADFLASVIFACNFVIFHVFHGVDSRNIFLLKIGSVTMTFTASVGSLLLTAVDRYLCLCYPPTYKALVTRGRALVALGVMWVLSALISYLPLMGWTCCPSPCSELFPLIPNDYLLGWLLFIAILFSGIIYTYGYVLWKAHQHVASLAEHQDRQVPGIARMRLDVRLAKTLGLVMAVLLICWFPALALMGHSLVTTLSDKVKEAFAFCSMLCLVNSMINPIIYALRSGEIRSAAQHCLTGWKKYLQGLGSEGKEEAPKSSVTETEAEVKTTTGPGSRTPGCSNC
Method: as §3

## Cc1nc(N2CCN(C)CC2)c2nc(-c3ccccc3Cl)n(C(C)CO)c2n1.Cl (single isomer, unassigned; isomer 1) [Example 18, 2-[8-(2-Chloro-phenyl)-2-methyl-6-(4-methyl-piperazin-1-yl)-purin-9-yl]-propan-1-ol hydrochloride, Isomer 1]
Male Lewis rats; dose of 0.3 mg/kg
  pain versus vehicle (difference in hind paw weight bearing): reduce pain versus vehicle

## Cc1nc(N2CCN(C)CC2)c2nc(-c3ccccc3Cl)n(C(C)CO)c2n1.Cl (single isomer, unassigned; isomer 2) [Example 19, 2-[8-(2-Chloro-phenyl)-2-methyl-6-(4-methyl-piperazin-1-yl)-purin-9-yl]-propan-1-ol hydrochloride, Isomer 2]
[1]; read-out: mean Area-Under the Curve from 0-24 hours (AUC0-24hr)
  AUC(0-t): 44500 ng·h/mL
[1]; read-out: mean maximum concentration (Cmax)
  Cmax: 7540 ng/mL
Beagle dog; female dog
  faeces: Decreased faeces
  food consumption: minimal decreased food consumption
Beagle dog; female dog, 48 hours after dosing
  decrease in reticulocyte count, change relative to pre-dose: 39%
Beagle dog; one male and one female dog
  Post-dose clinical observations: limited to vomiting and dilated pupils
[2]; 10 mg/kg oral twice daily, over the duration of the study (Day 18)
  allodynia compared to both vehicle and morphine-treated animals: developed less allodynia
[2]; Day 10, 10 mg/kg oral twice daily
  Mean paw withdrawal latencies (mean ± SE): 11.25 ± 1.31
[2]; Day 12, 10 mg/kg oral twice daily
  Mean paw withdrawal latencies (mean ± SE): 7.38 ± 0.95
[2]; Day 15, 10 mg/kg oral twice daily
  Mean paw withdrawal latencies (mean ± SE): 7.90 ± 1.04
[2]; Day 18, 10 mg/kg oral twice daily
  Mean paw withdrawal latencies (mean ± SE): 6.02 ± 0.72
hCB1; agonist mode, hCB1-CHO membranes, read-out: relative EC50 value for CB1
  EC50: > 100 µM
hCB2 [3]; agonist mode, hCB2-Sf9 membranes, read-out: relative EC50 value for CB2
  EC50: 22.4 nM
Male Lewis rats; dose of 0.3 mg/kg
  pain versus vehicle (difference in hind paw weight bearing): reduce pain versus vehicle
Male Lewis rats; dose of 1 mg/kg
  pain versus vehicle (difference in hind paw weight bearing): reduce pain versus vehicle

## COCCCn1c(-c2ccccc2Cl)nc2c(N3CCN(CCF)CC3)nc(C)nc21 [Example 6, 8-(2-Chlorophenyl)-6-[4-(2-fluoroethyl)piperazin-1-yl]-9-(3-methoxypropyl)-2-methyl-purine hydrochloride]
hCB1
  EC50: > 100 µM
hCB2 [3]
  EC50: 2.7 nM

## COC(C)(C)Cn1c(-c2ccccc2Cl)nc2c(N3CCN(C(C)=O)CC3)nc(C)nc21 [Example 8, 1-[4-[8-(2-Chlorophenyl)-9-(2-methoxy-2-methyl-propyl)-2-methyl-purin-6-yl]piperazin-1-yl]ethanone]
hCB2 [4]
  Ki: 142 nM
Rat CB2 receptor
  Ki: 37.5 nM

## CC(=O)N1CCN(c2nc(C)nc3c2nc(-c2ccccc2Cl)n3CC(C)(C)O)CC1 [Example 13, 1-[4-[8-(2-Chlorophenyl)-9-(2-hydroxy-2-methyl-propyl)-2-methyl-purin-6-yl]piperazin-1-yl]ethanone hydrochloride]
hCB2 [4]
  Ki: 65.2 nM
Rat CB2 receptor; 3H-CP55940 displacement, rat CB2, read-out: rat receptor Ki value
  Ki: 215 nM

## CN1CC[C@]23c4c5ccc(O)c4O[C@H]2[C@@H](O)C=C[C@H]3[C@H]1C5 [Morphine, reference compound]
[2]; Day 10, 5 mg/kg twice daily
  Mean paw withdrawal latencies (mean ± SE): 8.16 ± 1.22
[2]; Day 12, 5 mg/kg twice daily
  Mean paw withdrawal latencies (mean ± SE): 3.67 ± 0.30
[2]; Day 15, 5 mg/kg twice daily
  Mean paw withdrawal latencies (mean ± SE): 3.84 ± 0.45
[2]; Day 18, 5 mg/kg twice daily
  Mean paw withdrawal latencies (mean ± SE): 3.46 ± 0.42

— patent US8759360B2, “Purine compounds” (Eli Lilly and Company, priority 2010, dated 2014)
